Values of other authors in patent US20060003361A1, “SMVT transporters expressed in cancer cells” (Xenoport, Inc., priority 2004, published 2006).

Target: T1, SMVT (Homo sapiens, UniProt Q9Y289)
T1 sequence (Q9Y289 1-635): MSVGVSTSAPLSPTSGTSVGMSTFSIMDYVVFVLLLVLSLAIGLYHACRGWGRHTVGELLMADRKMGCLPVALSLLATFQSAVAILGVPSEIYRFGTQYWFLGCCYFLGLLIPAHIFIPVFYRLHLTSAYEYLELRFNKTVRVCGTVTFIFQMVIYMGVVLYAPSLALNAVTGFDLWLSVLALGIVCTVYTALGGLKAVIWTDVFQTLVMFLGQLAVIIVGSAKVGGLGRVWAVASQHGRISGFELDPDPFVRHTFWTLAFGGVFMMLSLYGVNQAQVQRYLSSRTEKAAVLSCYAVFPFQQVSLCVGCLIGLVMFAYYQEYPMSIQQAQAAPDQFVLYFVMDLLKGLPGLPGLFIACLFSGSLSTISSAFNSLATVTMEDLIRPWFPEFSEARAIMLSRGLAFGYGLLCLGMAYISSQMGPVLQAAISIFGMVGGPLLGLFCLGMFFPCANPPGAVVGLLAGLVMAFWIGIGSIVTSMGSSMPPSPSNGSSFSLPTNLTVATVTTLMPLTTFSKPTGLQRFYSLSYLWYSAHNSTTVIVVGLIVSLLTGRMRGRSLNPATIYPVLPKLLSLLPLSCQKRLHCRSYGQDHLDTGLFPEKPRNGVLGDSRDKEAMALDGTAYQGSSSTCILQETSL

Structure (SMILES) | Reported Affinity for SMVT [mM]
O=C(O)CCCc1ccccc1 [4-phenyl-butyric acid] | 0.04
O=C(O)CCCC[C@@H]1SC[C@@H]2NC(=O)N[C@@H]21 [Biotin] | 0.01
CC(C)(CO)[C@@H](O)C(=O)NCCC(=O)O [Pantothenic acid] | 0.03
